Test results from patent US20190337924A1, “SUBSTITUTED HYDANTOIN AND THIOHYDANTOIN DERIVATIVES AS ANDROGEN RECEPTOR ANTAGONISTS” (Janssen Pharmaceutica NV, priority 2016, published 2019).
pIC50: −log10 of the molar value. Counter-ions that a name gives are not always drawn. Like-named read-outs stand apart in the source and are kept apart here.

Target: T1, F876L mutant Androgen Receptor (AR-F876L) (Homo sapiens, UniProt P10275, F877L)
T1 construct: expressed in transfected cells; host or cells: LNCaP
T1 sequence (P10275 1-920 F877L): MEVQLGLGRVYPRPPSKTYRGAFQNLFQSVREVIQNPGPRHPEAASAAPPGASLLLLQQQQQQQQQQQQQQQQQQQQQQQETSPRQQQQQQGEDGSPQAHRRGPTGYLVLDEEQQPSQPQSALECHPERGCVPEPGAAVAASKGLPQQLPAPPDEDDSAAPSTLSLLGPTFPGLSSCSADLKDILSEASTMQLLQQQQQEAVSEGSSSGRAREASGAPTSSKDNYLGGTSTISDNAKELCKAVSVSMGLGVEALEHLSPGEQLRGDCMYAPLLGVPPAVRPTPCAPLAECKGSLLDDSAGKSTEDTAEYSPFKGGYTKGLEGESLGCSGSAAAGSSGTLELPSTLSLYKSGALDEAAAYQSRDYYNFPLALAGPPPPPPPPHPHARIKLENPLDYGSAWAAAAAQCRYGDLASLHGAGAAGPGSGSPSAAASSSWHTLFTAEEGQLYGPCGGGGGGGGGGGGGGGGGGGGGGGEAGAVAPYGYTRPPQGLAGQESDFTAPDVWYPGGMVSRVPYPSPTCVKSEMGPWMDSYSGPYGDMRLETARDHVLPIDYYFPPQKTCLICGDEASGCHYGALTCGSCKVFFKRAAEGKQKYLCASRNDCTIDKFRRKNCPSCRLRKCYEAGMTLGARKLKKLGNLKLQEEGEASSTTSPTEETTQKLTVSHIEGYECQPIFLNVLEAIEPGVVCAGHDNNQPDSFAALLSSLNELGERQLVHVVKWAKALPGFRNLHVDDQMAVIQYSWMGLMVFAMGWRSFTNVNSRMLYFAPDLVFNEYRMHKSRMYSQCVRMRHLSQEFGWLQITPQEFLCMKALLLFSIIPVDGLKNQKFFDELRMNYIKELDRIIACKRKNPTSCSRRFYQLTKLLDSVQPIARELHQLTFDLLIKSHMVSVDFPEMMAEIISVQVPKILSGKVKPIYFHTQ
Assay: AR reporter assay, LNCaP-AR-F876L ANT (antagonist mode)
Format: cell-based
Conditions: for Emax: read-out: LNCaP-AR-F876L ANT MAX % Inh; for IC50: antagonist mode, 600 pM R-1881 challenge, luciferase reporter, -Log10(IC50 in Molar), read-out: LNCaP-AR-F876L ANT pIC50 (converted)
Text: LNCaP AR (cs) and LNCaP F876L luciferase cell lines were generated by transduction of each cell line (description of cell line generation Joseph J D, Lu N, Qian J, Sensintaffar J, Shao G, Brigham D, Moon M, Maneval E C, Chen I, Darimont B, Hager J H. A clinically relevant androgen receptor mutation confers resistance to second-generation antiandrogens enzalutamide and ARN-509. Cancer Discov 2013; 3:1020-1029) with an Androgen Response Element Firefly Luciferase lentiviral construct at an MOI (multiplicity of infection) of 50 following the manufacturer's instructions (Qiagen). A stable pooled-population cell line was generated using puromycin (Life Technologies) selection at 1:10,000 v/v. The protocol below was used for both cell lines and for testing of the compounds of Formula (I) of the present invention.
LNCaP cells were grown to about 80% confluence, media removed and cells rinsed in Hank's balanced salt solution prior to separation from the plate with 0.05% Trypsin EDTA. Cells were lifted and trypsin negated in complete CSS (charcoal stripped serum) culture media. CSS was maintained on cells for 24 h prior to assay, at which time 5,000 cells/[…] were seeded in Greiner 384 well White/White Tissue Culture Treated Plates and incubated for a further 1-2 hours at 37° C., 5% CO2, prior to addition of 10 μL of 4× Test Compounds (compounds described herein) or Assay Controls (all diluted in complete media containing 10% css). A further 10 μL of 4× R-1881 Agonist Challenge (antagonist assay) or Buffer (agonist assay) was then added (all diluted in complete media containing 10% css). Agonist challenge was at 400 pM for WT assay and 600 pM for F876L assay. Plates containing cells and compounds herein were incubated for a further 20-24 hours at 37° C., 5% CO2 before addition of 40 μL/well of Steady-Glo Luciferase Assay System Reagent (Promega#E2520). After 1 h, plates were read for luminescence on a BMG Pherastar.
Agonist challenge: R-1881 (Metribolone)—Agonist
Antagonist control (low control): 5-(5-(4-((1-Methylpiperidin-4-yl)oxy)phenyl)-8-oxo-6-thioxo-5,7-diazaspiro[3.4]octan-7-yl)-3-(trifluoromethyl)picolinonitrile (WO 2011/103202, EXAMPLE 19, Compound 129, CAS #1332390-06-3).
(1−(Sample RLU−Ave Low Control RLU[10 μM Antagonist Control])/(Ave High Control RLU [400 pM R-1881]−Ave Low Control RLU[10 μM Antagonist Control]))*100.
EC/IC50 calculations were achieved utilizing calculated RLU data and data fitting macros. Data were fit using least-squares methods to the following formula: […]
As used herein: • pIC50 is defined as −Log10(IC50 expressed in [Molar]). • pEC50 is defined as −Log10(EC50 expressed in [Molar]). • MAX % Inh is defined as the maximum % inhibition of R1881 control response observed for a compound over the tested concentration range. • MAX % Stim is defined as the maximum % stimulation (agonist response) observed for a compound over the tested concentration range. • LNCaP-AR-wt ANT refers to the reporter assay using LNCaP cells stably transfected with the Androgen Response Element Firefly Luciferase lentiviral construct and wild-type Androgen Receptor (AR-wt) in Antagonist mode. • LNCaP-AR-wt AG refers to the reporter assay using LNCaP cells stably transfected with the Androgen Response Element Firefly Luciferase lentiviral construct and wild-type Androgen Receptor (AR-wt) in Agonist mode. • LNCaP-AR-F876L ANT refers to the reporter assay using LNCaP cells stably transfected with the Androgen Response Element Firefly Luciferase lentiviral construct and F876L mutant Androgen Receptor (AR-F876L) in Antagonist mode. • LNCaP-AR-F876L AG refers to the reporter assay using LNCaP cells stably transfected with the Androgen Response Element Firefly Luciferase lentiviral construct and F876L mutant Androgen Receptor (AR-F876L) in Agonist mode.

Compound `CC1(C)C(=O)N(c2ccc(C#N)c(C(F)(F)F)c2)C(=S)N1c1ccc(OC2CCNCC2)cc1` [Compound 1, 4-(4,4-Dimethyl-5-oxo-3-(4-(piperidin-4-yloxy)phenyl)-2-thioxoimidazolidin-1-yl)-2-(trifluoromethyl)benzonitrile] has a pIC50 of 7.38 and an Emax of 102%.
`CN1CCC(Oc2ccc(N3C(=S)N(c4ccc(C#N)c(C(F)(F)F)c4)C(=O)C3(C)C)cc2)CC1` [Compound 2, 4-(4,4-Dimethyl-3-(4-((1-methylpiperidin-4-yl)oxy)phenyl)-5-oxo-2-thioxoimidazolidin-1-yl)-2-(trifluoromethyl)benzonitrile hydrochloride] gave a pIC50 of 7.16 and an Emax of 101%.
Work on `CC1(C)C(=O)N(c2ccc(C#N)c(C(F)(F)F)c2)C(=S)N1c1ccc(OC2CCNCC2)nc1` [Compound 3, 4-(4,4-Dimethyl-5-oxo-3-(6-(piperidin-4-yloxy)pyridin-3-yl)-2-thioxoimidazolidin-1-yl)-2-(trifluoromethyl)benzonitrile hydrochloride] yielded a pIC50 of 7.39 and an Emax of 102%.
`CN1CCC(Oc2ccc(N3C(=S)N(c4ccc(C#N)c(C(F)(F)F)c4)C(=O)C3(C)C)cn2)CC1` [Compound 4, 4-(4,4-Dimethyl-3-(6-((1-methylpiperidin-4-yl)oxy)pyridin-3-yl)-5-oxo-2-thioxoimidazolidin-1-yl)-2-(trifluoromethyl)benzonitrile hydrochloride] was tested, and the pIC50 was 7.08 and the Emax was 102%.
Work on `CC1(C)C(=O)N(c2ccc(C#N)c(C(F)(F)F)c2)C(=S)N1c1cnc(OC2CCNCC2)nc1` [Compound 5, 4-(4,4-Dimethyl-5-oxo-3-(2-(piperidin-4-yloxy)pyrimidin-5-yl)-2-thioxoimidazolidin-1-yl)-2-(trifluoromethyl)benzonitrile] yielded a pIC50 of 6.64 and an Emax of 101%.
Work on `CN1CCC(Oc2ncc(N3C(=S)N(c4ccc(C#N)c(C(F)(F)F)c4)C(=O)C3(C)C)cn2)CC1` [Compound 6, 4-(4,4-Dimethyl-3-(2-((1-methylpiperidin-4-yl)oxy)pyrimidin-5-yl)-5-oxo-2-thioxoimidazolidin-1-yl)-2-(trifluoromethyl)benzonitrile] yielded an IC50 of 135 nM and an Emax of 101%.
`CC1(C)C(=O)N(c2ccc(C#N)c(Cl)c2)C(=S)N1c1ccc(OC2CCNCC2)cc1` [Compound 7, 2-Chloro-4-(4,4-dimethyl-5-oxo-3-(4-(piperidin-4-yloxy)phenyl)-2-thioxoimidazolidin-1-yl)benzonitrile hydrochloride] showed a pIC50 of 7.42 and an Emax of 101%.
`CN1CCC(Oc2ccc(N3C(=S)N(c4ccc(C#N)c(Cl)c4)C(=O)C3(C)C)cc2)CC1` [Compound 8, 2-Chloro-4-(4,4-dimethyl-3-(4-((1-methylpiperidin-4-yl)oxy)phenyl)-5-oxo-2-thioxoimidazolidin-1-yl)benzonitrile hydrochloride] showed a pIC50 of 7.23 and an Emax of 101%.
Compound `CC1(C)C(=O)N(c2ccc(C#N)c(Cl)c2)C(=S)N1c1ccc(OC2CCNCC2)nc1` [Compound 9, 2-Chloro-4-(4,4-dimethyl-5-oxo-3-(6-(piperidin-4-yloxy)pyridin-3-yl)-2-thioxoimidazolidin-1-yl)benzonitrile hydrochloride] has a pIC50 of 7.41 and an Emax of 100%.
`CN1CCC(Oc2ccc(N3C(=S)N(c4ccc(C#N)c(Cl)c4)C(=O)C3(C)C)cn2)CC1` [Compound 10, 2-Chloro-4-(4,4-dimethyl-3-(6-((1-methylpiperidin-4-yl)oxy)pyridin-3-yl)-5-oxo-2-thioxoimidazolidin-1-yl)benzonitrile hydrochloride] was tested, and the pIC50 was 7.07 and the Emax was 101%.
`N#Cc1ccc(N2C(=O)C3(CCC3)N(c3ccc(OC4CCNCC4)cc3)C2=S)cc1C(F)(F)F` [Compound 11, 4-(8-Oxo-5-(4-(piperidin-4-yloxy)phenyl)-6-thioxo-5,7-diazaspiro[3.4]octan-7-yl)-2-(trifluoromethyl)benzonitrile] was tested, and the pIC50 was 6.97 and the Emax was 102%.
In the case of `CN1CCC(Oc2ccc(N3C(=S)N(c4ccc(C#N)c(C(F)(F)F)c4)C(=O)C34CCC4)cc2)CC1` [Compound 12, 4-(5-(4-((1-Methylpiperidin-4-yl)oxy)phenyl)-8-oxo-6-thioxo-5,7-diazaspiro[3.4]octan-7-yl)-2-(trifluoromethyl)benzonitrile], the pIC50 was 6.78 and the Emax was 101%.
`N#Cc1ccc(N2C(=O)C3(CCC3)N(c3ccc(OC4CCNCC4)nc3)C2=S)cc1C(F)(F)F` [Compound 13, 4-(8-Oxo-5-(6-(piperidin-4-yloxy)pyridin-3-yl)-6-thioxo-5,7-diazaspiro[3.4]octan-7-yl)-2-(trifluoromethyl)benzonitrile hydrochloride] was tested, and the pIC50 was 7.24 and the Emax was 102%.
In the case of `CN1CCC(Oc2ccc(N3C(=S)N(c4ccc(C#N)c(C(F)(F)F)c4)C(=O)C34CCC4)cn2)CC1` [Compound 14, 4-(5-(6-((1-Methylpiperidin-4-yl)oxy)pyridin-3-yl)-8-oxo-6-thioxo-5,7-diazaspiro[3.4]octan-7-yl)-2-(trifluoromethyl)benzonitrile], the pIC50 was 7.24 and the Emax was 101%.
Compound `N#Cc1ccc(N2C(=O)C3(CCC3)N(c3cnc(OC4CCNCC4)nc3)C2=S)cc1C(F)(F)F` [Compound 15, 4-(8-Oxo-5-(2-(piperidin-4-yloxy)pyrimidin-5-yl)-6-thioxo-5,7-diazaspiro[3.4]octan-7-yl)-2-(trifluoromethyl)benzonitrile] has an IC50 of 107 nM and an Emax of 101%.
Compound `CN1CCC(Oc2ncc(N3C(=S)N(c4ccc(C#N)c(C(F)(F)F)c4)C(=O)C34CCC4)cn2)CC1` [Compound 16, 4-(5-(2-((1-Methylpiperidin-4-yl)oxy)pyrimidin-5-yl)-8-oxo-6-thioxo-5,7-diazaspiro[3.4]octan-7-yl)-2-(trifluoromethyl)benzonitrile] has an IC50 of 166 nM and an Emax of 101%.
Compound `Cc1cc(N2C(=O)C3(CCC3)N(c3ccc(OC4CCN(C)CC4)cc3)C2=S)ccc1C#N` [Compound 17, 2-Methyl-4-(5-(4-((1-methylpiperidin-4-yl)oxy)phenyl)-8-oxo-6-thioxo-5,7-diazaspiro[3.4]octan-7-yl)benzonitrile] has an IC50 of 129 nM and an Emax of 101%.
